From patent US9029531B2 (Agios Pharmaceuticals, Inc., priority 2012, dated 2015)

molecular target: T1, glutaminase (GAC) (Homo sapiens, UniProt O94925); test: Glutaminase coupled endpoint enzymatic assay (Example A); format: biochemical; conditions: inhibition of glutaminase; assay of Example A or Example B
T1 sequence (O94925 55-598 isoform O94925-3 limits assumed): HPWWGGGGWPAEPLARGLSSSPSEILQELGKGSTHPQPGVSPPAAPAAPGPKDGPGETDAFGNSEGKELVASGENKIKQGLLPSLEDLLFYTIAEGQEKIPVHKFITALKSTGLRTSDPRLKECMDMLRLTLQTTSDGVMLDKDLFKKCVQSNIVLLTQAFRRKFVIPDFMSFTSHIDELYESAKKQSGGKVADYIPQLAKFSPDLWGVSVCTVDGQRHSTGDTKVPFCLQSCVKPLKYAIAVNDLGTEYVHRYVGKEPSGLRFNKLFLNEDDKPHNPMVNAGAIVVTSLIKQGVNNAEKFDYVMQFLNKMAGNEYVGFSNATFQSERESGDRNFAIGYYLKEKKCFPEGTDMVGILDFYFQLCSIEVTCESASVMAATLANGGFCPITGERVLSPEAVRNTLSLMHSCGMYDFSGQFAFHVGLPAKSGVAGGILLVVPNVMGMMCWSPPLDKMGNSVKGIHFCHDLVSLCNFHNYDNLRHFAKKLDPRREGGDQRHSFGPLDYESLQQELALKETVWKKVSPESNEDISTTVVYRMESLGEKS
Procedure, shortened: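 Endpoint coupled assay: glutamate formed by GAC drives GDH NADH production, recycled by diaphorase reducing resazurin to fluorescent resorufin (Ex544/Em590) after SDS stop. Buffer pH 8.5 with phosphate; glutamine at Km; enzyme preincubated with compound 60 min at room temperature.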

IC50 [nM] | SMILES
< 100 | NCc1cccc(CC(=O)Nc2nnc([C@H]3CCC[C@H](c4nnc(NC(=O)Cc5cccc(CN)c5)s4)C3)s2)c1 [Compound 245, N,N′-(5,5′-((1S,3S)-cyclohexane-1,3-diyl)bis(1,3,4-thiadiazole-5,2-diyl))bis(2-(3-(aminomethyl)phenyl)acetamide)]
< 100 | NCc1ccc(CC(=O)Nc2nnc([C@H]3CCC[C@H](c4nnc(NC(=O)Cc5ccc(CN)cc5)s4)C3)s2)cc1 [Compound 246, N,N′-(5,5′-((1S,3S)-cyclohexane-1,3-diyl)bis(1,3,4-thiadiazole-5,2-diyl))bis(2-(4-(aminomethyl)phenyl)acetamide)]
< 100 | CCOc1ccnc(CC(=O)Nc2nnc([C@H]3CCC[C@H](c4nnc(NC(=O)Cc5cc(OCC)ccn5)s4)C3)s2)c1 [Compound 247, N,N′-(5,5′-((1S,3S)-cyclohexane-1,3-diyl)bis(1,3,4-thiadiazole-5,2-diyl))bis(2-(4-ethoxypyridin-2-yl)acetamide)]
< 100 | COc1ccc(F)c(CC(=O)Nc2nnc([C@H]3CCC[C@H](c4nnc(NC(=O)Cc5cc(OC)ccc5F)s4)C3)s2)c1 [Compound 248, N,N′-(5,5′-((1S,3S)-cyclohexane-1,3-diyl)bis(1,3,4-thiadiazole-5,2-diyl))bis(2-(2-fluoro-5-methoxyphenyl)acetamide)]
< 100 | O=C(Cc1cccc(N2CC(O)C2)n1)Nc1nnc([C@H]2CCC[C@H](c3nnc(NC(=O)Cc4cccc(N5CC(O)C5)n4)s3)C2)s1 [Compound 249, N,N′-(5,5′-((1S,3S)-cyclohexane-1,3-diyl)bis(1,3,4-thiadiazole-5,2-diyl))bis(2-(6-(3-hydroxyazetidin-1-yl)pyridin-2-yl)acetamide)]
100 to 500 | O=C(Cc1cccc(NC2CC(F)(F)C2)n1)Nc1nnc([C@H]2CCC[C@H](c3nnc(NC(=O)Cc4cccc(NC5CC(F)(F)C5)n4)s3)C2)s1 [Compound 250, N,N′-(5,5′-((1S,3S)-cyclohexane-1,3-diyl)bis(1,3,4-thiadiazole-5,2-diyl))bis(2-(6-(3,3-difluorocyclobutylamino)pyridin-2-yl)acetamide)]
< 100 | O=C(Cc1cccc(N2CC(F)C2)n1)Nc1nnc([C@H]2CCC[C@H](c3nnc(NC(=O)Cc4cccc(N5CC(F)C5)n4)s3)C2)s1 [Compound 251, N,N′-(5,5′-((1S,3S)-cyclohexane-1,3-diyl)bis(1,3,4-thiadiazole-5,2-diyl))bis(2-(6-(3-fluoroazetidin-1-yl)pyridin-2-yl)acetamide)]
< 100 | O=C(Cc1ccc(N2CC(F)(F)C2)cn1)Nc1nnc([C@H]2CCC[C@H](c3nnc(NC(=O)Cc4ccc(N5CC(F)(F)C5)cn4)s3)C2)s1 [Compound 252, N,N′-(5,5′-((1S,3S)-cyclohexane-1,3-diyl)bis(1,3,4-thiadiazole-5,2-diyl))bis(2-(5-(3,3-difluoroazetidin-1-yl)pyridin-2-yl)acetamide)]
100 to 500 | CC(=O)Nc1nnc([C@H]2CCC[C@H](c3nnc(NC(=O)Cc4ccc(N5CC(F)(F)C5)cn4)s3)C2)s1 [Compound 253, N-(5-((1S,3S)-3-(5-acetamido-1,3,4-thiadiazol-2-yl)cyclohexyl)-1,3,4-thiadiazol-2-yl)-2-(5-(3,3-difluoroazetidin-1-yl)pyridin-2-yl)acetamide]
100 to 500 | O=C(Cc1cc(N2CCC2)ccn1)Nc1nnc([C@H]2CCC[C@H](c3nnc(NC(=O)Cc4cc(N5CCC5)ccn4)s3)C2)s1 [Compound 254, N,N′-(5,5′-((1S,3S)-cyclohexane-1,3-diyl)bis(1,3,4-thiadiazole-5,2-diyl))bis(2-(4-(azetidin-1-yl)pyridin-2-yl)acetamide)]
100 to 500 | O=C(Cc1cc(N2CC(O)C2)ccn1)Nc1nnc([C@H]2CCC[C@H](c3nnc(NC(=O)Cc4cc(N5CC(O)C5)ccn4)s3)C2)s1 [Compound 255, N,N′-(5,5′-((1S,3S)-cyclohexane-1,3-diyl)bis(1,3,4-thiadiazole-5,2-diyl))bis(2-(4-(3-hydroxyazetidin-1-yl)pyridin-2-yl)acetamide)]
< 100 | O=C(Cc1cc(N2CC(F)C2)ccn1)Nc1nnc([C@H]2CCC[C@H](c3nnc(NC(=O)Cc4cc(N5CC(F)C5)ccn4)s3)C2)s1 [Compound 256, N,N′-(5,5′-((1S,3S)-cyclohexane-1,3-diyl)bis(1,3,4-thiadiazole-5,2-diyl))bis(2-(4-(3-fluoroazetidin-1-yl)pyridin-2-yl)acetamide)]
< 100 | O=C(Cc1cccc(N2CCC2)c1)Nc1nnc([C@H]2CCC[C@H](c3nnc(NC(=O)Cc4cccc(N5CCC5)c4)s3)C2)s1 [Compound 257, N,N′-(5,5′-((1S,3S)-cyclohexane-1,3-diyl)bis(1,3,4-thiadiazole-5,2-diyl))bis(2-(3-(azetidin-1-yl)phenyl)acetamide)]
100 to 500 | O=C(Cc1cc(N2CC(F)(F)C2)ccn1)Nc1nnc([C@H]2CCC[C@H](c3nnc(NC(=O)Cc4cc(N5CC(F)(F)C5)ccn4)s3)C2)s1 [Compound 258, N,N′-(5,5′-((1S,3S)-cyclohexane-1,3-diyl)bis(1,3,4-thiadiazole-5,2-diyl))bis(2-(4-(3,3-difluoroazetidin-1-yl)pyridin-2-yl)acetamide)]
100 to 500 | CN1CCN(c2cccc(CC(=O)Nc3nnc([C@H]4CCC[C@H](c5nnc(NC(=O)Cc6cccc(N7CCN(C)CC7)c6)s5)C4)s3)c2)CC1 [Compound 259]
100 to 500 | O=C(Cc1cccc(N2CCCC2)c1)Nc1nnc([C@H]2CCC[C@H](c3nnc(NC(=O)Cc4cccc(N5CCCC5)c4)s3)C2)s1 [Compound 260, N,N′-(5,5′-((1S,3S)-cyclohexane-1,3-diyl)bis(1,3,4-thiadiazole-5,2-diyl))bis(2-(3-(pyrrolidin-1-yl)phenyl)acetamide)]
< 100 | O=C(Cc1cccc(NC2CC2)c1)Nc1nnc([C@H]2CCC[C@H](c3nnc(NC(=O)Cc4cccc(NC5CC5)c4)s3)C2)s1 [Compound 261, N,N′-(5,5′-((1S,3S)-cyclohexane-1,3-diyl)bis(1,3,4-thiadiazole-5,2-diyl))bis(2-(3-(cyclopropylamino)phenyl)acetamide)]
< 100 | O=C(Cc1cccc(N2CCOCC2)c1)Nc1nnc([C@H]2CCC[C@H](c3nnc(NC(=O)Cc4cccc(N5CCOCC5)c4)s3)C2)s1 [Compound 262, N,N′-(5,5′-((1S,3S)-cyclohexane-1,3-diyl)bis(1,3,4-thiadiazole-5,2-diyl))bis(2-(3-morpholinophenyl)acetamide)]
< 100 | O=C(Cc1cccc(N2CCNCC2)c1)Nc1nnc([C@H]2CCC[C@H](c3nnc(NC(=O)Cc4cccc(N5CCNCC5)c4)s3)C2)s1 [Compound 263, N,N′-(5,5′-((1S,3S)-cyclohexane-1,3-diyl)bis(1,3,4-thiadiazole-5,2-diyl))bis(2-(3-(piperazin-1-yl)phenyl)acetamide)]
< 100 | CNc1cccc(CC(=O)Nc2nnc([C@H]3CCC[C@H](c4nnc(NC(=O)Cc5cccc(NC)c5)s4)C3)s2)c1 [Compound 264, N,N′-(5,5′-((1S,3S)-cyclohexane-1,3-diyl)bis(1,3,4-thiadiazole-5,2-diyl))bis(2-(3-(methylamino)phenyl)acetamide)]
100 to 500 | O=C(Cc1ccc(N2CCOCC2)cc1)Nc1nnc([C@H]2CCC[C@H](c3nnc(NC(=O)Cc4ccc(N5CCOCC5)cc4)s3)C2)s1 [Compound 265, N,N′-(5,5′-((1S,3S)-cyclohexane-1,3-diyl)bis(1,3,4-thiadiazole-5,2-diyl))bis(2-(4-morpholinophenyl)acetamide)]
< 100 | O=C(Cc1ccc(N2CC(F)(F)C2)cc1)Nc1nnc([C@H]2CCC[C@H](c3nnc(NC(=O)Cc4ccc(N5CC(F)(F)C5)cc4)s3)C2)s1 [Compound 266, N,N′-(5,5′-((1S,3S)-cyclohexane-1,3-diyl)bis(1,3,4-thiadiazole-5,2-diyl))bis(2-(4-(3,3-difluoroazetidin-1-yl)phenyl)acetamide)]
100 to 500 | O=C(Cc1cccc(N2CCC2)n1)Nc1nnc([C@H]2CCC[C@H](c3nnc(NC(=O)Cc4cccc(N5CCC5)n4)s3)C2)s1 [Compound 267, N,N′-(5,5′-((1S,3S)-cyclohexane-1,3-diyl)bis(1,3,4-thiadiazole-5,2-diyl))bis(2-(6-(azetidin-1-yl)pyridin-2-yl)acetamide)]
< 100 | O=C(Cc1cccc(N2CC(F)(F)C2)n1)Nc1nnc([C@H]2CCC[C@H](c3nnc(NC(=O)Cc4cccc(N5CC(F)(F)C5)n4)s3)C2)s1 [Compound 268, N,N′-(5,5′-((1S,3S)-cyclohexane-1,3-diyl)bis(1,3,4-thiadiazole-5,2-diyl))bis(2-(6-(3,3-difluoroazetidin-1-yl)pyridin-2-yl)acetamide)]
100 to 500 | O=C(Cc1cccc(N2CC(F)(F)C2)c1)Nc1nnc([C@H]2CCC[C@H](c3nnc(NC(=O)Cc4cccc(N5CC(F)(F)C5)c4)s3)C2)s1 [Compound 269]
< 100 | COC1CN(c2cccc(CC(=O)Nc3nnc([C@H]4CCC[C@H](c5nnc(NC(=O)Cc6cccc(N7CC(OC)C7)n6)s5)C4)s3)n2)C1 [Compound 270, N,N′-(5,5′-((1S,3S)-cyclohexane-1,3-diyl)bis(1,3,4-thiadiazole-5,2-diyl))bis(2-(6-(3-methoxyazetidin-1-yl)pyridin-2-yl)acetamide)]
